Test [1] concerns the target T1, F1F0-ATPase (Bos taurus, UniProt P13621). The test can be described thus: Inhibition of ATP hydrolysis by the F1F0-ATPase. The class given is biochemical. Particulars: IC40: concentration for 40% inhibition. The procedure:
(§1) The compounds listed in Table 9 were tested for activity against F1F0-ATPase by measuring ATP synthesis and ATP hydrolysis. In addition, the compounds were assessed for cytotoxicity in Ramos cells Inhibition of ATP synthesis and hydrolysis by the F1F0-ATPase and cytotoxicity in Ramos cells was measured as described in K. M. Johnson et al. Chemistry & Biology 2005, 12, 485-496.

Test [2] has as its target T1, F1F0-ATPase. The test can be described thus: Inhibition of ATP synthesis by the F1F0-ATPase. Type of test: biochemical. Conditions: IC40: concentration for 40% inhibition. The procedure:
as §1

The next test has as its system Ramos cells. In words: Cytotoxicity (cell death) in Ramos cells. Particulars: Ramos cells. Type of test: cell-based. Here is the method:
as §1

Some results are limits rather than exact numbers.

As for `O=C(N=C(NCCc1c[nH]cn1)Nc1cccc(-c2ccccc2)c1)c1cccc(Cl)c1` [III-6, (Z/E)-N-((2-(1H-imidazol-4-yl)ethylamino)(biphenyl-3-ylamino)methylene)-3-chlorobenzamide], the “ATP Hydrolysis (IC40 μM)” value on F1F0-ATPase [1] is greater than 10 µM. In addition, at F1F0-ATPase [2], the “ATP Synthesis (IC40 μM)” value is less than 10 µM. This molecule also yielded a half-maximal effective concentration (EC50) in the test on Ramos cells of less than 10 µM.
Turning to `O=C(N=C(NCCc1c[nH]cn1)Nc1ccc(-c2ccccc2)cc1)c1cccc(Cl)c1` [III-7, (Z/E)-N-((2-(1H-imidazol-4-yl)ethylamino)(biphenyl-4-ylamino)methylene)-3-chlorobenzamide], the “ATP Hydrolysis (IC40 μM)” value on F1F0-ATPase [1] is greater than 10 µM. Further, at F1F0-ATPase [2], the “ATP Synthesis (IC40 μM)” value was less than 10 µM. This molecule had a concentration giving a half-maximal response (EC50) in the test on Ramos cells of less than 10 µM.
On the same counts, the results for `Cc1ccccc1NC(=NC(=O)c1cccc(Cl)c1)NCCc1c[nH]cn1` [III-8, (Z/E)-N-((2-(1H-imidazol-4-yl)ethylamino)(o-toluidino)methylene)-3-chlorobenzamide] are greater than 30 µM, greater than 10 µM and greater than 30 µM.
The matching figures for `Cc1cccc(NC(=NC(=O)c2cccc(Cl)c2)NCCc2c[nH]cn2)c1` [III-9, (Z/E)-N-((2-(1H-imidazol-4-yl)ethylamino)(m-toluidino)methylene)-3-chlorobenzamide]: greater than 20 µM, greater than 10 µM and greater than 30 µM.
`Cc1ccc(NC(=NC(=O)c2cccc(Cl)c2)NCCc2c[nH]cn2)cc1` [III-10, (Z/E)-N-((2-(1H-imidazol-4-yl)ethylamino)(p-toluidino)methylene)-3-chlorobenzamide]: the “ATP Hydrolysis (IC40 μM)” value at F1F0-ATPase [1] was greater than 20 µM. Also, the “ATP Synthesis (IC40 μM)” value on F1F0-ATPase [2] was greater than 10 µM. Besides, the EC50 in the test with Ramos cells was greater than 10 µM.
The matching figures for `COc1ccccc1NC(=NC(=O)c1cccc(Cl)c1)NCCc1c[nH]cn1` [III-11, (Z/E)-N-((2-(1H-imidazol-4-yl)ethylamino)(2-methoxyphenylamino)methylene)-3-chlorobenzamide]: greater than 30 µM, greater than 10 µM and greater than 30 µM.
The matching figures for `COc1cccc(NC(=NC(=O)c2cccc(Cl)c2)NCCc2c[nH]cn2)c1` [III-12, (Z/E)-N-((2-(1H-imidazol-4-yl)ethylamino)(3-methoxyphenylamino)methylene)-3-chlorobenzamide]: greater than 30 µM, greater than 20 µM and greater than 30 µM.
The matching figures for `COc1ccc(NC(=NC(=O)c2cccc(Cl)c2)NCCc2c[nH]cn2)cc1` [III-13, (Z/E)-N-((2-(1H-imidazol-4-yl)ethylamino)(4-methoxyphenylamino)methylene)-3-chlorobenzamide]: greater than 30 µM, greater than 10 µM and greater than 30 µM.
As to `O=C(N=C(NCCc1c[nH]cn1)Nc1ccccc1F)c1cccc(Cl)c1` [III-14, (Z/E)-N-((2-(1H-imidazol-4-yl)ethylamino)(2-fluorophenylamino)methylene)-3-chlorobenzamide], on F1F0-ATPase [1], the “ATP Hydrolysis (IC40 μM)” value was greater than 30 µM. Also, the “ATP Synthesis (IC40 μM)” value on F1F0-ATPase [2] is greater than 20 µM. The same molecule registered an EC50 in the test with Ramos cells greater than 30 µM.
On the same counts, the results for `O=C(N=C(NCCc1c[nH]cn1)Nc1cccc(F)c1)c1cccc(Cl)c1` [III-15, (Z/E)-N-((2-(1H-imidazol-4-yl)ethylamino)(3-fluorophenylamino)methylene)-3-chlorobenzamide] are greater than 30 µM, greater than 20 µM and greater than 30 µM.
For the molecule `O=C(N=C(NCCc1c[nH]cn1)Nc1ccc(F)cc1)c1cccc(Cl)c1` [III-16, (Z/E)-N-((2-(1H-imidazol-4-yl)ethylamino)(4-fluorophenylamino)methylene)-3-chlorobenzamide], on F1F0-ATPase [1], the “ATP Hydrolysis (IC40 μM)” value is greater than 30 µM. At F1F0-ATPase [2], the “ATP Synthesis (IC40 μM)” value was greater than 20 µM. The molecule also registered an EC50 in the test with Ramos cells greater than 30 µM.
Turning to `O=C(N=C(NCCc1c[nH]cn1)Nc1ccccc1Cl)c1cccc(Cl)c1` [III-17, (Z/E)-N-((2-(1H-imidazol-4-yl)ethylamino)(2-chlorophenylamino)methylene)-3-chlorobenzamide], on F1F0-ATPase [1], the “ATP Hydrolysis (IC40 μM)” value was greater than 20 µM. In addition, at F1F0-ATPase [2], the “ATP Synthesis (IC40 μM)” value is greater than 10 µM. In addition, in the test on Ramos cells, the 50% effective concentration (EC50) was greater than 30 µM.
The matching figures for `O=C(N=C(NCCc1c[nH]cn1)Nc1cccc(Cl)c1)c1cccc(Cl)c1` [III-18, (Z/E)-N-((2-(1H-imidazol-4-yl)ethylamino)(3-chlorophenylamino)methylene)-3-chlorobenzamide]: greater than 20 µM, greater than 10 µM and greater than 10 µM.
With `O=C(N=C(NCCc1c[nH]cn1)Nc1ccc(Cl)cc1)c1cccc(Cl)c1` [III-19, (Z/E)-N-((2-(1H-imidazol-4-yl)ethylamino)(4-chlorophenylamino)methylene)-3-chlorobenzamide], on F1F0-ATPase [1], the “ATP Hydrolysis (IC40 μM)” value is greater than 30 µM. In addition, the “ATP Synthesis (IC40 μM)” value on F1F0-ATPase [2] was greater than 10 µM. In addition, the concentration giving a half-maximal response (EC50) in the test with Ramos cells is greater than 10 µM.
Turning to `O=C(N=C(NCCc1c[nH]cn1)Nc1ccc(Br)cc1)c1cccc(Cl)c1` [III-20, (Z/E)-N-((2-(1H-imidazol-4-yl)ethylamino)(4-bromophenylamino)methylene)-3-chlorobenzamide], the “ATP Hydrolysis (IC40 μM)” value on F1F0-ATPase [1] is greater than 10 µM. At F1F0-ATPase [2], the “ATP Synthesis (IC40 μM)” value is greater than 10 µM. The molecule further yielded an EC50 with Ramos cells greater than 10 µM.
As to `N#Cc1ccc(-c2ccc(NC(=NC(=O)c3cccc(Cl)c3)NCCc3c[nH]cn3)cc2)cc1` [III-21, (Z/E)-N-((2-(1H-imidazol-4-yl)ethylamino)(4′-cyanobiphenyl-4-ylamino)methylene)-3-chlorobenzamide], on F1F0-ATPase [1], the “ATP Hydrolysis (IC40 μM)” value was greater than 30 µM. Moreover, the “ATP Synthesis (IC40 μM)” value on F1F0-ATPase [2] is less than 10 µM. The concentration for a half-maximal effect (EC50) in the test with Ramos cells was less than 10 µM.
Consider `O=C(N=C(NCCc1c[nH]cn1)Nc1ccccc1C(F)(F)F)c1cccc(Cl)c1` [III-23, (Z/E)-N-((2-(1H-imidazol-4-yl)ethylamino)(2-(trifluoromethyl)phenylamino)methylene)-3-chlorobenzamide], for which, on F1F0-ATPase [1], the “ATP Hydrolysis (IC40 μM)” value was greater than 20 µM. For the same molecule, the “ATP Synthesis (IC40 μM)” value on F1F0-ATPase [2] was greater than 20 µM. For the same molecule, the half-maximal effective concentration (EC50) with Ramos cells was greater than 20 µM.
For the molecule `O=C(N=C(NCCc1c[nH]cn1)Nc1cccc(C(F)(F)F)c1)c1cccc(Cl)c1` [III-24, (Z/E)-N-((2-(1H-imidazol-4-yl)ethylamino)(3-(trifluoromethyl)phenylamino)methylene)-3-chlorobenzamide], on F1F0-ATPase [1], the “ATP Hydrolysis (IC40 μM)” value is less than 10 µM. Further, the “ATP Synthesis (IC40 μM)” value at F1F0-ATPase [2] was less than 10 µM. This molecule also gave an EC50 in the test on Ramos cells greater than 10 µM.
Take `O=C(N=C(NCCc1c[nH]cn1)Nc1ccc(C(F)(F)F)cc1)c1cccc(Cl)c1` [III-25, (Z/E)-N-((2-(1H-imidazol-4-yl)ethylamino)(4-(trifluoromethyl)phenylamino)methylene)-3-chlorobenzamide]: the “ATP Hydrolysis (IC40 μM)” value on F1F0-ATPase [1] is less than 10 µM. Also, on F1F0-ATPase [2], the “ATP Synthesis (IC40 μM)” value is greater than 10 µM. The molecule also had an EC50 in the test with Ramos cells greater than 10 µM.
On the same counts, the results for `O=C(N=C(NCCc1c[nH]cn1)Nc1ccc2ccccc2c1)c1cccc(Cl)c1` [III-26, (Z/E)-N-((2-(1H-imidazol-4-yl)ethylamino)(naphthalen-2-ylamino)methylene)-3-chlorobenzamide] are greater than 10 µM, greater than 10 µM and greater than 10 µM.

Source of the values: patent US8324258B2, “F1F0-ATPase inhibitors and related methods” (The Regents of the University of Michigan, priority 2007, dated 2012).
